The values that follow are results of earlier work, collected in patent US6656217B1, “Medical device coated with a polymer containing a nitric oxide releasing organometallic nitrosyl compound useful for the prevention of platelet aggregation” (NovoVascular, Inc., priority 1996, dated 2003).

This data set concerns platelet aggregation.

As for `[Cl][Ru]([Cl])[Cl].[N-]=O` [ruthenium nitrosyl trichioride], the “inhibition of platelet aggregation by nitric oxide generation from light activation” value was “failed to inhibit platelet aggregation”.
